Here are results for 39 molecules from patent US8946439B2, “Amide compounds, compositions and uses thereof” (Evotec AG, priority 2008, dated 2015).

One experiment deals with T1, hP2X3 (Homo sapiens, UniProt P56373).
T1 construct: expressed in transfected cells; host or cells: e.g. HEK293 or 1321N1
T1 sequence (P56373 1-397): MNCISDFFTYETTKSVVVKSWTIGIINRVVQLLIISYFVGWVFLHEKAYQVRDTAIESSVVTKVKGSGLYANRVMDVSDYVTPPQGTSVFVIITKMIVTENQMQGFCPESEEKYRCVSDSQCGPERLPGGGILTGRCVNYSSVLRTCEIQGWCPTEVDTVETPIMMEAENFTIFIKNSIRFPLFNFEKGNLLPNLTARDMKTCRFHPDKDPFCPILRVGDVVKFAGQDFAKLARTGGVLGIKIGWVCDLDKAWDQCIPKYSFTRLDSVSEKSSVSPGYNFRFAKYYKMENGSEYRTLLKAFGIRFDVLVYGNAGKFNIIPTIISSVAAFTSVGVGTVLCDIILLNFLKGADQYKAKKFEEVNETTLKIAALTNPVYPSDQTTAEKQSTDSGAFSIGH
As to the kind of experiment: Calcium uptake assay (P2X antagonist assay), P2X3 homomer. In kind it is cell-based. Conditions: calcium uptake assay, hP2X3; read-out: IC50 hP2X3 (nM), Ca Influx. The method, boiled down:
(§1)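 Stably or transiently transfected HEK293 or 1321N1 cells; the heteromer is made by adding P2X3 to a P2X2-stable line, with heteromer function isolated pharmacologically. The peak-minus-baseline FLIPR calcium signal gives % inhibition and a 4-parameter-logistic IC50.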

The target of a further experiment is T2, hP2X2/3H (Homo sapiens, UniProt P56373+Q9UBL9).
T2 construct: expressed in transfected cells; host or cells: e.g. HEK293 or 1321N1
T2 sequence (Q9UBL9 1-471): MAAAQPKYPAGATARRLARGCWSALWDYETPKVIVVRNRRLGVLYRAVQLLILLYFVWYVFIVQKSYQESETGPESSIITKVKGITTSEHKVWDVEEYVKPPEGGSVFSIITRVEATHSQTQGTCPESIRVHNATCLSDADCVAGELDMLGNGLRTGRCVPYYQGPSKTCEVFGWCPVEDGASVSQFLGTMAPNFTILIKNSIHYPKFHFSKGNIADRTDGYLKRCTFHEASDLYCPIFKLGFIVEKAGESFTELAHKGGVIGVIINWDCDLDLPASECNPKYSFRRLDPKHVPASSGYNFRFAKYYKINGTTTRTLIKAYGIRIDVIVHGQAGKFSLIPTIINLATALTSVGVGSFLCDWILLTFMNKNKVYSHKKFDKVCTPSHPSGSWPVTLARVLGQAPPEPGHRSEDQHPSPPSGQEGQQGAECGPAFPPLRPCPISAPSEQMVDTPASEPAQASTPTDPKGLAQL
T2 sequence (P56373 1-397): T1 sequence (P56373 1-397)
The experiment is described as follows: Calcium uptake assay (P2X antagonist assay), P2X2/3 heteromer. The experiment is classed as cell-based. The conditions noted are these: calcium uptake assay, hP2X2/3H; read-out: IC50 hP2X2/3H (nM), Ca Influx. The method, boiled down:
as §1

Bounds are passed on as bounds.

For the molecule `Cc1ccc(-c2cc(C(=O)O)cc(C(=O)NCc3ccc(C)nc3)c2)cc1` [Compound 87, 4′-Methyl-5-((6-methylpyridin-3-yl)methylcarbamoyl)biphenyl-3-carboxylic acid], the IC50 at hP2X3 and at hP2X2/3H was 100 to 500 nM throughout.

As to `CCOC(=O)c1cc(C(=O)NCc2ccc(C)nc2)cc(-c2ccc(C)cc2)c1` [Compound 88], the IC50 on hP2X3 is 100 to 500 nM; on hP2X2/3H, under 100 nM.

Take `Cc1ccc(-c2cc(C(=O)N[C@H](CO)c3ccc(C(F)F)nc3)cc(C(=O)N3CCCC3)c2)cc1` [Compound 89]: the IC50 at hP2X3 and on hP2X2/3H was under 100 nM in each case.

For the molecule `Cc1ccc(-c2cc(C(=O)NCc3ccc4ocnc4c3)cc(C(=O)N3CCCC3)c2)cc1` [Compound 90], the IC50 at hP2X3 and on hP2X2/3H was under 100 nM in each case.

As for `Cc1ccc(-c2cc(C(=O)NCc3ccc(Cl)nc3)cc(C(=O)N3CCCC3)c2)cc1` [Compound 91], the IC50 on hP2X3 and on hP2X2/3H was under 100 nM in each case.

Take `Cc1ccc(-c2cc(C(=O)N[C@H](CO)c3ccc(C(F)(F)F)nc3)cc(C(=O)N3CCCC3)c2)cc1` [Compound 92]: the IC50 on hP2X3 and on hP2X2/3H was under 100 nM throughout.

With `Cc1ccc(-c2cc(C(=O)N[C@@H](C)c3cnc(C)nc3)cc(C(=O)N3CCCC3)c2)cc1` [Compound 93], the results for the IC50 at hP2X3 and at hP2X2/3H were 100 to 500 nM and 501 to 1000 nM, respectively.

Consider `Cc1ccc(-c2cc(C(=O)NCc3ccc(C)nc3)cc(C(=O)N3CC[C@@H](O)C3)c2)cc1` [Compound 94, (R)-5-(3-Hydroxypyrrolidine-1-carbonyl)-4′-methyl-N-((6-methylpyridin-3-yl)methyl)biphenyl-3-carboxamide], for which the IC50 on hP2X3 and on hP2X2/3H was under 100 nM throughout.

For the molecule `Cc1ccc(-c2cc(C(=O)NCc3ccc(C)nc3)cc(C(=O)N3CC[C@H](O)C3)c2)cc1` [Compound 95, (S)-5-(3-Hydroxypyrrolidine-1-carbonyl)-4′-methyl-N-((6-methylpyridin-3-yl)methyl)biphenyl-3-carboxamide], the IC50 on hP2X3 was under 100 nM; at hP2X2/3H it was 100 to 500 nM.

For the molecule `Cc1ccc(-c2cc(C(=O)N[C@H](CO)c3cnc(C)nc3)cc(C(=O)N3CCCC3)c2)cc1` [Compound 96], the IC50 on hP2X3 and at hP2X2/3H was under 100 nM each time.

As to `Cc1ccc(-c2cc(C(=O)NC(C)c3ccc4c(c3)OCO4)cc(C(=O)N3CCCC3)c2)cc1` (stereo not drawn) [Compound 97], the IC50 on hP2X3 and on hP2X2/3H was 100 to 500 nM in each case.

In the case of `Cc1ccc(-c2cc(C(=O)NCc3ccc4c(c3)OCO4)cc(C(=O)N3CCCC3)c2)cc1` [Compound 98], the IC50 at hP2X3 and on hP2X2/3H was 100 to 500 nM in each case.

As for `Cc1ncc(CNC(=O)c2cc(C(=O)N3CCCC3)cc(-c3ccc(F)cn3)c2)cn1` [Compound 99], the IC50 at hP2X3 and at hP2X2/3H was over 1000 nM each time.

As to `Cc1ccc(-c2cc(C(=O)NCc3ccc(C)nc3)cc(C(=O)N3CC[C@@H](NC(=O)OC(C)(C)C)C3)c2)cc1` [Compound 100], the IC50 on hP2X3 was in the range of 501 to 1000 nM; at hP2X2/3H it was 100 to 500 nM.

On to `Cc1ccc(-c2cc(C(=O)NCc3ccc(C)nc3)cc(C(=O)N3CC[C@@H](N)C3)c2)cc1` [Compound 101], for which the IC50 fell in the range of 100 to 500 nM at hP2X3 and 501 to 1000 nM on hP2X2/3H.

Take `Cc1ccc(-c2cc(C(=O)NCc3ccc(Cl)c(-n4cnnc4)c3)cc(C(=O)N3CCCC3)c2)cc1` [Compound 102]: the IC50 at hP2X3 and at hP2X2/3H was under 100 nM throughout.

Consider `Cc1ccc(-c2cc(C(=O)NC(C)c3ccc(C)nc3)cc(C(=O)N3CCCC3)c2)cc1` (stereo not drawn) [Compound 103], for which the IC50 on hP2X3 and at hP2X2/3H was under 100 nM in each case.

In the case of `Cc1ccc(-c2cc(C(=O)N[C@H](C)c3cnc(C)c(Cl)c3)cc(C(=O)N3CCCC3)c2)cc1` [Compound 104], the IC50 at hP2X3 is under 100 nM; at hP2X2/3H, 100 to 500 nM.

In the case of `Cc1ccc(-c2cc(C(=O)NCc3ccc(C)nc3)cc(S(=O)(=O)N3CCCC3)c2)cc1` [Compound 105], the IC50 on hP2X3 and at hP2X2/3H was under 100 nM each time.

In the case of `Cc1ccc(-c2cc(C(=O)NCc3ccc(C)nc3)cc(S(=O)(=O)N3CCCC3)c2)nc1` [Compound 106], the IC50 at hP2X3 and on hP2X2/3H was under 100 nM each time.

In the case of `Cc1ccc(-c2cc(C(=O)N[C@H](C)c3cnn(C)c3C(F)(F)F)cc(C(=O)N3CCCC3)c2)cc1` [Compound 107], the IC50 lay in the range of 100 to 500 nM at hP2X3 and 501 to 1000 nM on hP2X2/3H.

As to `Cc1ccc(-c2cc(C(=O)N[C@H](C)c3cnn(C)c3Cl)cc(C(=O)N3CCCC3)c2)cc1` [Compound 108, (R)—N-(1-(5-Chloro-1-methyl-1H-pyrazol-4-yl)ethyl)-4′-methyl-5-(pyrrolidine-1-carbonyl)biphenyl-3-carboxamide], the IC50 on hP2X3 and at hP2X2/3H was under 100 nM each time.

As to `Cc1ccc(-c2cc(C(=O)N[C@H](C)c3cnn(C)c3C)cc(C(=O)N3CCCC3)c2)cc1` [Compound 109], the values for the IC50 on hP2X3 and at hP2X2/3H were 100 to 500 nM and 501 to 1000 nM, respectively.

For `Cc1ccc(-c2cc(C(=O)N[C@H](C)c3cnn4c3COCC4)cc(C(=O)N3CCCC3)c2)cc1` [Compound 110], the IC50 at hP2X3 is 100 to 500 nM; at hP2X2/3H, over 1000 nM.

Regarding `Cc1ccc(-c2cc(C(=O)NC(C)c3csc(C)n3)cc(C(=O)N3CCCC3)c2)cc1` (stereo not drawn) [Compound 111, 4′-Methyl-N-(1-(2-methylthiazol-4-yl)ethyl)-5-(pyrrolidine-1-carbonyl)biphenyl-3-carboxamide], the IC50 on hP2X3 was under 100 nM; on hP2X2/3H it was 100 to 500 nM.

For `Cc1ccc(CNC(=O)c2cc(-c3ccc(Cl)c(Cl)c3)cc(S(C)(=O)=O)c2)cn1` [Compound 112], the IC50 on hP2X3 and on hP2X2/3H was over 1000 nM in each case.

For `Cc1ccc(-c2cc(C(=O)NCc3ccc(C)nc3)cc(S(C)(=O)=O)c2)nc1` [Compound 113, 3-(5-Methylpyridin-2-yl)-N-((6-methylpyridin-3-yl)methyl)-5-(methylsulfonyl)benzamide], the figures for the IC50 on hP2X3 and on hP2X2/3H were under 100 nM and 100 to 500 nM, respectively.

In the case of `COc1ncc([C@@H](C)NC(=O)c2cc(-c3ccc(C)cc3)cc(S(C)(=O)=O)c2)cn1` [Compound 114], the figures for the IC50 on hP2X3 and at hP2X2/3H were under 100 nM and 100 to 500 nM, respectively.

In the case of `COc1ncc(CNC(=O)c2cc(-c3ccc(C)cc3)cc(S(C)(=O)=O)c2)cn1` [Compound 115], the IC50 at hP2X3 is under 100 nM; on hP2X2/3H, 100 to 500 nM.

Turning to `Cc1ccc(-c2cc(C(=O)N[C@H](C)c3cnc(C)nc3)cc(S(C)(=O)=O)c2)cc1` [Compound 116, (R)-4′-Methyl-N-(1-(2-methylpyrimidin-5-yl)ethyl)-5-(methylsulfonyl)biphenyl-3-carboxamide], the IC50 at hP2X3 and at hP2X2/3H was under 100 nM throughout.

As for `Cc1ccc(-c2cc(C(=O)N[C@H](C)c3cnn(CC(F)(F)F)c3C)cc(C(=O)N3CCCC3)c2)cc1` [Compound 117], the IC50 at hP2X3 is 501 to 1000 nM; on hP2X2/3H, over 1000 nM.

On to `Cc1ccc(-c2cc(C(=O)NC(C)c3ccc(C)nc3)cc(C(=O)N3CCCC3)c2)nc1` (stereo not drawn) [Compound 118], for which the IC50 at hP2X3 and at hP2X2/3H was under 100 nM each time.

Consider `Cc1ccc(CNC(=O)c2cc(-c3ccc(Cl)c(C)c3)cc(S(C)(=O)=O)c2)cn1` [Compound 119], for which the IC50 on hP2X3 and at hP2X2/3H was over 1000 nM in each case.

In the case of `Cc1ccc(CNC(=O)c2cc(-c3ccc(C)c(Cl)c3)cc(S(C)(=O)=O)c2)cn1` [Compound 120], the IC50 at hP2X3 and at hP2X2/3H was over 1000 nM in each case.

Regarding `Cc1ccc(CNC(=O)c2cc(-c3ccc(C)c(C)c3)cc(S(C)(=O)=O)c2)cn1` [Compound 121], the IC50 at hP2X3 and on hP2X2/3H was over 1000 nM throughout.

As to `Cc1ccc(-c2cc(C(=O)NCc3ccc(C)nc3)cc(C(=O)N3CCCC3)c2)nc1` [Compound 122, 3-(5-Methylpyridin-2-yl)-N-((6-methylpyridin-3-yl)methyl)-5-(pyrrolidine-1-carbonyl)benzamide], the IC50 on hP2X3 and on hP2X2/3H was under 100 nM each time.

Take `Cc1ccc(-c2cc(C(=O)NCc3ccc(C(F)(F)F)nc3)cc(C(=O)N3CCCC3)c2)nc1` [Compound 123]: the IC50 on hP2X3 and on hP2X2/3H was under 100 nM in each case.

For `Cc1ccc(-c2cc(C(=O)NCc3ccc(C)nc3)cc(C(=O)N3CCNCC3)c2)cc1` [Compound 124], the IC50 on hP2X3 was under 100 nM; on hP2X2/3H it was 100 to 500 nM.

As to `Cc1ccc(-c2cc(C(=O)NCc3ccc(C)nc3)cc(C(=O)N3CCN(C(C)C)CC3)c2)cc1` [Compound 125], the IC50 is under 100 nM at hP2X3 and 100 to 500 nM at hP2X2/3H.
